Measured values as given in patent US20100298141A1, “SUBSTITUTED PYRIDINE N-OXIDE HERBICIDES” (E. I. DU PONT DE NEMOURS AND COMPANY, priority 2007, published 2010).

Tests used:
cocklebur = assay: Test C pre-/postemergence test; type: in vivo, Xanthium strumarium; conditions: for Plant response rating, Cocklebur: scale 0 to 100, 0 no effect, 100 complete control
How it was run: (§1)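 Compounds in a non-phytotoxic solvent with surfactant applied preemergence to seeded pots and, at the same time, postemergence to plants 2–18 cm tall (1- to 4-leaf stage). Paddy tests: pots flooded to 3 cm, compound applied into the water, depth held throughout.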

redroot pigweed = assay: Test A pre-/postemergence greenhouse test; type: in vivo, Amaranthus retroflexus; conditions: for Pigweed plant response rating: 0 to 100 scale
How it was run: (§2)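 Seeds sown in a loam soil–sand blend got a preemergence directed soil spray of compound in a non-phytotoxic solvent mixture containing surfactant. Postemergence sprays of the same formulation went at the same time onto plants 2–10 cm tall at the one- to two-leaf stage. Injury was scored visually against untreated controls after about ten days in the greenhouse.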

morningglory = assay: Test A pre-/postemergence greenhouse test; type: in vivo, Ipomoea spp.; conditions: for Morningglory plant response rating: 0 to 100 scale
How it was run: as §2

wheat [1] = assay: Test A pre-/postemergence greenhouse test; type: in vivo, Triticum aestivum; conditions: for Wheat plant response rating: 0 to 100 scale
How it was run: as §2

wheat [2] = assay: Test C pre-/postemergence test; type: in vivo, Triticum aestivum; conditions: for Wheat plant response rating: preemergence, scale 0 (no effect) to 100 (complete control); for Plant response rating, Wheat: scale 0 to 100, 0 no effect, 100 complete control
How it was run: as §1

giant foxtail = assay: Test A pre-/postemergence greenhouse test; type: in vivo, Setaria faberi; conditions: for Foxtail, Giant plant response rating: 0 to 100 scale
How it was run: as §2

wild oat = assay: Test C pre-/postemergence test; type: in vivo, Avena fatua; conditions: for Plant response rating, Oat, Wild: scale 0 to 100, 0 no effect, 100 complete control
How it was run: as §1

blackgrass = assay: Test C pre-/postemergence test; type: in vivo, Alopecurus myosuroides; conditions: for Plant response rating, Blackgrass: scale 0 to 100, 0 no effect, 100 complete control
How it was run: as §1

Surinam grass = assay: Test C pre-/postemergence test; type: in vivo, Brachiaria decumbens; conditions: for Surinam Grass plant response rating: preemergence, scale 0 (no effect) to 100 (complete control); for Plant response rating, Surinam Grass: scale 0 to 100, 0 no effect, 100 complete control
How it was run: as §1

downy brome = assay: Test C pre-/postemergence test; type: in vivo, Bromus tectorum
How it was run: as §1

[3] = 31 g ai/ha, Preemergence, scale 0 to 100
[4] = 62 g ai/ha, preemergence, scale 0 (no effect) to 100 (complete control)
[5] = preemergence, 125 g ai/ha, scale 0 (no effect) to 100 (complete control)
[6] = Postemergence, 125 g ai/ha, 0 is no effect, 100 is complete control
[7] = Postemergence, 500 g ai/ha, 0 is no effect, 100 is complete control
[8] = Preemergence, 125 g ai/ha, 0 no effect, 100 complete control
[9] = Preemergence, 500 g ai/ha, 0 to 100 scale where 0 is no effect and 100 is complete control

SMILES: Cc1cc[n+]([O-])c([S+]([O-])Cc2c(C(F)(F)F)nn(C)c2OC(F)F)c1 (stereo not shown) [Compound 1]
- Cocklebur plant response rating (cocklebur; [3]): 0
- Cocklebur plant response rating (cocklebur; [4]): 0
- Plant response rating (0 to 100), Cocklebur (cocklebur; Postemergence, 31 g ai/ha): 0
- Plant response rating, Cocklebur (cocklebur; Postemergence, 62 g ai/ha): 0
- Plant response rating, Cocklebur (cocklebur; Postemergence, 125 g ai/ha): 0
- Plant response rating, Cocklebur (cocklebur; Postemergence, 250 g ai/ha): 0
- Plant response rating (0 to 100), Cocklebur (cocklebur; Preemergence, 250 g ai/ha): 60
- Cocklebur plant response rating (cocklebur; [5]): 0
- Pigweed plant response rating (redroot pigweed; [6]): 100
- Pigweed plant response rating (redroot pigweed; [7]): 100
- Pigweed plant response rating (redroot pigweed; [8]): 100
- Plant response rating, Pigweed (redroot pigweed; [9]): 100
- Morningglory plant response rating (morningglory; [6]): 70
- Morningglory plant response rating (morningglory; [7]): 90
- Morningglory plant response rating (morningglory; [8]): 70
- Plant response rating, Morningglory (morningglory; [9]): 80
- Wheat plant response rating (wheat [1]; [6]): 70
- Wheat plant response rating (wheat [1]; [7]): 70
- Wheat plant response rating (wheat [1]; [8]): 60
- Plant response rating, Wheat (wheat [1]; [9]): 90
- Wheat plant response rating (wheat [2]; 62 g ai/ha): 30
- Plant response rating (0 to 100), Wheat (wheat [2]; Postemergence, 31 g ai/ha): 0
- Plant response rating (0 to 100), Wheat (wheat [2]; Postemergence, 62 g ai/ha): 0
- Plant response rating, Wheat (wheat [2]; Postemergence, 125 g ai/ha): 0
- Plant response rating, Wheat (wheat [2]; Postemergence, 250 g ai/ha): 0
- Plant response rating (0 to 100), Wheat (wheat [2]; Preemergence, 250 g ai/ha): 95
- Wheat plant response rating (wheat [2]; 125 g ai/ha): 60
- Foxtail, Giant plant response rating (giant foxtail; [6]): 80
- Foxtail, Giant plant response rating (giant foxtail; [7]): 90
- Foxtail, Giant plant response rating (giant foxtail; [8]): 100
- Plant response rating, Foxtail, Giant (giant foxtail; [9]): 100
- Oat, Wild plant response rating (wild oat; [3]): 50
- Oat, Wild plant response rating (wild oat; [4]): 85
- Plant response rating (0 to 100), Oat, Wild (wild oat; Postemergence, 31 g ai/ha): 0
- Plant response rating, Oat, Wild (wild oat; Postemergence, 62 g ai/ha): 0
- Plant response rating, Oat, Wild (wild oat; Postemergence, 125 g ai/ha): 0
- Plant response rating, Oat, Wild (wild oat; Postemergence, 250 g ai/ha): 0
- Plant response rating (0 to 100), Oat, Wild (wild oat; Preemergence, 250 g ai/ha): 100
- Oat, Wild plant response rating (wild oat; [5]): 95
- Blackgrass plant response rating (blackgrass; [3]): 70
- Blackgrass plant response rating (blackgrass; [4]): 100
- Plant response rating (0 to 100), Blackgrass (blackgrass; Postemergence, 31 g ai/ha): 0
- Plant response rating, Blackgrass (blackgrass; Postemergence, 62 g ai/ha): 0
- Plant response rating, Blackgrass (blackgrass; Postemergence, 125 g ai/ha): 0
- Plant response rating, Blackgrass (blackgrass; Postemergence, 250 g ai/ha): 0
- Plant response rating (0 to 100), Blackgrass (blackgrass; Preemergence, 250 g ai/ha): 100
- Blackgrass plant response rating (blackgrass; [5]): 100
- Surinam Grass plant response rating (Surinam grass; 62 g ai/ha): 100
- Plant response rating (0 to 100), Surinam Grass (Surinam grass; Postemergence, 31 g ai/ha): 0
- Plant response rating (0 to 100), Surinam Grass (Surinam grass; Postemergence, 62 g ai/ha): 0
- Plant response rating, Surinam Grass (Surinam grass; Postemergence, 125 g ai/ha): 30
- Plant response rating, Surinam Grass (Surinam grass; Postemergence, 250 g ai/ha): 60
- Plant response rating (0 to 100), Surinam Grass (Surinam grass; Preemergence, 250 g ai/ha): 100
- Surinam Grass plant response rating (Surinam grass; 125 g ai/ha): 100
- Bromegrass, Downy plant response rating (downy brome; [3]): 0
- Bromegrass, Downy plant response rating (downy brome; [4]): 50
- Plant response rating (0 to 100), Bromegrass, Downy (downy brome; Postemergence, 31 g ai/ha): 0
- Plant response rating, Bromegrass, Downy (downy brome; Postemergence, 62 g ai/ha, scale 0 to 100, 0 no effect, 100 complete control): 0
